Source: ChEMBL document CHEMBL1909046, “DrugMatrix in vitro pharmacology data”

Key:
[1] = target: T1, Alpha-2C adrenergic receptor (Homo sapiens, UniProt P18825); assay: DRUGMATRIX: Adrenergic Alpha-2C radioligand binding (ligand: [3H] MK-912); format: cell membranes, Sf9, Membrane
T1 sequence (P18825 whole entry): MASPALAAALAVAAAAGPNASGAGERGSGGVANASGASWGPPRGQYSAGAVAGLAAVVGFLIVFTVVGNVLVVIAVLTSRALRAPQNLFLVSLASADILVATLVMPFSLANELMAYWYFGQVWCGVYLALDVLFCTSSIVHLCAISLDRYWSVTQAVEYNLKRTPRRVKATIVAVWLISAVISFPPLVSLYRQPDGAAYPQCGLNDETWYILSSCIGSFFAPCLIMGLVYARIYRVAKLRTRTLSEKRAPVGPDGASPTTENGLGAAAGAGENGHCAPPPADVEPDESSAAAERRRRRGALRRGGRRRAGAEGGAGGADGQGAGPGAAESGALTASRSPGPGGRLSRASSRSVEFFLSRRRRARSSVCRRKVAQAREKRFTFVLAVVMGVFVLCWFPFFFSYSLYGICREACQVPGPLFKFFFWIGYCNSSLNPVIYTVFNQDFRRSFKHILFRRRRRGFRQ

[2] = target: T2, Calcitonin receptor (Homo sapiens, UniProt P30988); format: cell membranes, Membrane; details: t47d; note: in other assays of this panel Not Active means under 50% inhibition at 10 µM
T2 sequence (P30988 whole entry): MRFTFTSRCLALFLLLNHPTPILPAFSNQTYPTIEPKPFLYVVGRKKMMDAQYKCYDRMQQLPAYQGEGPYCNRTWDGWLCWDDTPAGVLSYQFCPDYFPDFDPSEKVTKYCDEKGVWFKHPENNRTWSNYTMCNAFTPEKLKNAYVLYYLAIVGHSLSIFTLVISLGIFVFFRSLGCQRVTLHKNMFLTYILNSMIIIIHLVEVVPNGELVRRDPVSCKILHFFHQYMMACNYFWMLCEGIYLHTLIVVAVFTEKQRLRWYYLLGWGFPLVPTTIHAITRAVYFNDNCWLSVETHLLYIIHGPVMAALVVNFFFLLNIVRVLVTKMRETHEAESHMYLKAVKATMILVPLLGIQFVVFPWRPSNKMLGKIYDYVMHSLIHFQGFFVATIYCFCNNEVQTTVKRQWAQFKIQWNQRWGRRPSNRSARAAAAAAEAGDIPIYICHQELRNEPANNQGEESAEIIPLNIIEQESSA

[3] = DRUGMATRIX: Calcium Channel Type L, Benzothiazepine radioligand binding (ligand: [3H] Diltiazem); format: cell membranes, Rattus norvegicus, Wistar, Brain, Membrane; details: Not Active = under 50% inhibition at 10 µM
[4] = DRUGMATRIX: Calcium Channel Type L, Phenylalkylamine radioligand binding (ligand: [3H] (-)-Desmethoxyverapamil (D-888)); format: cell membranes, Rattus norvegicus, Wistar, Brain, Membrane; details: Not Active = under 50% inhibition at 10 µM
[5] = target: T3, Interstitial collagenase (Homo sapiens, UniProt P03956); assay: biochemical; format: tissue-based, Rheumatoid synovial fibroblasts;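 note: MMP-1 enzyme inhibition assay using a peptide substrate; in other assays of this panel Not Active means under 50% inhibition at 10 µM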
T3 sequence (P03956 whole entry): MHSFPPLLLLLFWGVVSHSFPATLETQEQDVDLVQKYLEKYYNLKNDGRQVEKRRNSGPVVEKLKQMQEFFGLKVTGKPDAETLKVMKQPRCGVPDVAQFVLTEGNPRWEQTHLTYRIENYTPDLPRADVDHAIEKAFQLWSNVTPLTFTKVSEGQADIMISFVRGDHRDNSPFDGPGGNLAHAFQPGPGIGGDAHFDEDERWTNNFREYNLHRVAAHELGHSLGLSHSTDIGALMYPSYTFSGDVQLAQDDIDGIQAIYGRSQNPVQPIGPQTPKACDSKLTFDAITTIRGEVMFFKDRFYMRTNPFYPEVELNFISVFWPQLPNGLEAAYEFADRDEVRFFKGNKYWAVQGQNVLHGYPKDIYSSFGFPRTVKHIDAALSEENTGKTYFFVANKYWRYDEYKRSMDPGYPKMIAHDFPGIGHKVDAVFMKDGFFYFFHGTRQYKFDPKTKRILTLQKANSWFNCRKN

CC1(C)O[C@@H]2C[C@H]3[C@@H]4CCC5=CC(=O)CC[C@]5(C)[C@@]4(F)[C@@H](O)C[C@]3(C)[C@]2(C(=O)CCl)O1 [HALCINONIDE]
IC50 ([1]; sf9): Not Active | IC50 [2]: Not Active | IC50 [3]: Not Active | Ki [3]: Not Active | IC50 [4]: Not Active | Ki [4]: Not Active | IC50 [5]: Not Active

CC1CC(OC(=O)C(O)c2ccccc2)CC(C)(C)C1 (stereo unspecified) [CYCLANDELATE]
IC50 ([1]; sf9): Not Active | IC50 [2]: Not Active | IC50 [3]: Not Active | Ki [3]: Not Active | IC50 [4]: Not Active | Ki [4]: Not Active | IC50 [5]: Not Active

LEAD (II) ACETATE
IC50 ([1]; sf9): Not Active | Ki ([1]; sf9): Not Active | IC50 [2]: Not Active | Ki [2]: Not Active | IC50 [3]: Not Active | Ki [3]: Not Active | IC50 [4]: Not Active | Ki [4]: Not Active | IC50 [5]: Not Active | Ki [5]: Not Active

Sc1ncnc2nc[nH]c12 [MERCAPTOPURINE ANHYDROUS]
IC50 ([1]; sf9): Not Active | IC50 [2]: Not Active | IC50 [3]: Not Active | Ki [3]: Not Active | IC50 [4]: Not Active | Ki [4]: Not Active | IC50 [5]: Not Active

O=c1[nH]c(=O)n([C@H]2C[C@H](O)[C@@H](CO)O2)cc1I [IDOXURIDINE]
IC50 ([1]; sf9): Not Active | IC50 [2]: Not Active | IC50 [3]: Not Active | Ki [3]: Not Active | IC50 [4]: Not Active | Ki [4]: Not Active | IC50 [5]: Not Active

CC1(C)S[C@@H]2[C@H](NC(=O)Cc3ccccc3)C(=O)N2[C@H]1C(=O)O [PENICILLIN G]
IC50 ([1]; sf9): Not Active | IC50 [2]: Not Active | IC50 [3]: Not Active | Ki [3]: Not Active | IC50 [4]: Not Active | Ki [4]: Not Active | IC50 [5]: Not Active

CC1=C2C(=CO[C@H](C)[C@H]2C)C(O)=C(C(=O)O)C1=O [CITRININ]
IC50 ([1]; sf9): Not Active | IC50 [2]: Not Active | IC50 [3]: Not Active | Ki [3]: Not Active | IC50 [4]: Not Active | Ki [4]: Not Active | IC50 [5]: Not Active

Cc1c(C)c2c(c(C)c1O)CC[C@@](C)(CCC[C@H](C)CCC[C@H](C)CCCC(C)C)O2 [ALPHA-TOCOPHEROL]
IC50 ([1]; sf9): Not Active | IC50 [2]: Not Active | IC50 [3]: Not Active | Ki [3]: Not Active | IC50 [4]: Not Active | Ki [4]: Not Active | IC50 [5]: Not Active

O=C(O)CCCc1ccc(N(CCCl)CCCl)cc1 [CHLORAMBUCIL]
IC50 ([1]; sf9): Not Active | IC50 [2]: Not Active | IC50 [3]: Not Active | Ki [3]: Not Active | IC50 [4]: Not Active | Ki [4]: Not Active | IC50 [5]: Not Active

CC[C@@]1(O)C[C@H](O[C@H]2C[C@H](N(C)C)[C@H](O[C@H]3C[C@H](O)[C@H](O[C@H]4CCC(=O)[C@H](C)O4)[C@H](C)O3)[C@H](C)O2)c2c(cc3c(c2O)C(=O)c2c(O)cccc2C3=O)[C@H]1C(=O)OC [ACLARUBICIN]
IC50 ([1]; sf9): Not Active | IC50 [2]: Not Active | IC50 [3]: Not Active | Ki [3]: Not Active | IC50 [4]: Not Active | Ki [4]: Not Active | IC50 [5]: Not Active

CC(=O)O[C@@]12CO[C@@H]1C[C@H](O)[C@@]1(C)C(=O)[C@H](O)C3=C(C)[C@@H](OC(=O)[C@H](O)[C@@H](NC(=O)OC(C)(C)C)c4ccccc4)C[C@@](O)([C@@H](OC(=O)c4ccccc4)[C@H]21)C3(C)C.O.O.O [DOCETAXEL]
IC50 ([1]; sf9): Not Active | IC50 [2]: Not Active | IC50 [3]: Not Active | Ki [3]: Not Active | IC50 [4]: Not Active | Ki [4]: Not Active | IC50 [5]: Not Active

CC(C)CN(C[C@@H](O)[C@H](Cc1ccccc1)NC(=O)O[C@H]1CCOC1)S(=O)(=O)c1ccc(N)cc1
IC50 ([1]; sf9): Not Active | IC50 [2]: Not Active | IC50 [3]: Not Active | Ki [3]: Not Active | IC50 [4]: Not Active | Ki [4]: Not Active | IC50 [5]: Not Active

C[C@](N)(Cc1ccc(O)c(O)c1)C(=O)O [METHYLDOPA]
IC50 ([1]; sf9): Not Active | IC50 [2]: Not Active | IC50 [3]: Not Active | Ki [3]: Not Active | IC50 [4]: Not Active | Ki [4]: Not Active | IC50 [5]: Not Active

Nc1nc(N)nc(-c2cc(Cl)ccc2Cl)n1.O=C(O)/C=C\C(=O)O [IRSOGLADINE MALEATE]
IC50 ([1]; sf9): Not Active | IC50 [2]: Not Active | IC50 [3]: Not Active | Ki [3]: Not Active | IC50 [4]: Not Active | Ki [4]: Not Active | IC50 [5]: Not Active

Nc1ncn([C@@H]2O[C@H](CO)[C@@H](O)[C@H]2O)c(=O)n1 [AZACITIDINE]
IC50 ([1]; sf9): Not Active | IC50 [2]: Not Active | IC50 [3]: Not Active | Ki [3]: Not Active | IC50 [4]: Not Active | Ki [4]: Not Active | IC50 [5]: Not Active

LIPOPOLYSACCHARIDE E. COLI O55:B5
IC50 ([1]; sf9): Not Active | Ki ([1]; sf9): Not Active | IC50 [2]: Not Active | Ki [2]: Not Active | IC50 [3]: Not Active | Ki [3]: Not Active | IC50 [4]: Not Active | Ki [4]: Not Active | IC50 [5]: Not Active | Ki [5]: Not Active

CCCCN1CCCC[C@H]1C(=O)Nc1c(C)cccc1C [LEVOBUPIVACAINE]
IC50 ([1]; sf9): Not Active | IC50 [2]: Not Active | IC50 [3]: Not Active | Ki [3]: Not Active | IC50 [4]: Not Active | Ki [4]: Not Active | IC50 [5]: Not Active

CC(C)C(=O)Nc1ccc([N+](=O)[O-])c(C(F)(F)F)c1 [FLUTAMIDE]
IC50 ([1]; sf9): Not Active | IC50 [2]: Not Active | IC50 [3]: Not Active | Ki [3]: Not Active | IC50 [4]: Not Active | Ki [4]: Not Active | IC50 [5]: Not Active

CC(C)[C@H]1C(=O)N2CCC[C@H]2[C@]2(O)O[C@](NC(=O)[C@@H]3C=C4c5cccc6[nH]cc(c56)C[C@H]4N(C)C3)(C(C)C)C(=O)N12 [ERGOCORNINE]
IC50 ([1]; read-out: IC50): 0.017 µM | Ki ([1]; read-out: Ki): 0.00241 µM | IC50 [2]: Not Active | IC50 [3]: Not Active | Ki [3]: Not Active | IC50 [4]: Not Active | Ki [4]: Not Active | IC50 [5]: Not Active

CC(C)(Oc1ccc(Cl)cc1)C(=O)O [CLOFIBRIC ACID]
IC50 ([1]; sf9): Not Active | IC50 [2]: Not Active | IC50 [3]: Not Active | Ki [3]: Not Active | IC50 [4]: Not Active | Ki [4]: Not Active | IC50 [5]: Not Active

CCCC1O[C@@H]2C[C@H]3[C@@H]4CCC5=CC(=O)C=C[C@]5(C)[C@H]4[C@@H](O)C[C@]3(C)[C@]2(C(=O)CO)O1 (stereo partly specified) [BUDESONIDE]
IC50 ([1]; sf9): Not Active | IC50 [2]: Not Active | IC50 [3]: Not Active | Ki [3]: Not Active | IC50 [4]: Not Active | Ki [4]: Not Active | IC50 [5]: Not Active

O=C(CCCN1CC=C(n2c(=O)[nH]c3ccccc32)CC1)c1ccc(F)cc1 [DROPERIDOL]
IC50 ([1]; read-out: IC50): 1.76 µM | Ki ([1]; read-out: Ki): 0.256 µM | IC50 [2]: Not Active | IC50 [3]: Not Active | Ki [3]: Not Active | IC50 ([4]; read-out: IC50): 4.17 µM | Ki ([4]; read-out: Ki): 4.05 µM | IC50 [5]: Not Active

Clc1cccc(Cl)c1NC1=NCCN1 [CLONIDINE]
IC50 ([1]; sf9): Not Active | IC50 [2]: Not Active | IC50 [3]: Not Active | Ki [3]: Not Active | IC50 [4]: Not Active | Ki [4]: Not Active | IC50 [5]: Not Active

Cc1onc(O)c1CC(N)C(=O)O (racemic) [(R,S)-AMPA]
IC50 ([1]; sf9): Not Active | IC50 [2]: Not Active | IC50 [3]: Not Active | Ki [3]: Not Active | IC50 [4]: Not Active | Ki [4]: Not Active | IC50 [5]: Not Active
